Measurements: patent US9770026B2, “Substituted pyrimidine compound and uses thereof” (Shenyang Sinochem Agrochemicals R&D Co., Ltd., priority 2012, dated 2017)

What was measured:
rice blast = test: microbe, parasite or virus in culture; assay type: cell-based; settings: for inhibition at 8.3 ppm / inhibition at 25 ppm / inhibition at 0.1 ppm / inhibition at 0.3 ppm / inhibition at 0.9 ppm / inhibition at 2.8 ppm: Pyricularia oryzae; for inhibition at 8.3 ppm: read-out: inhibition rate against rice blast, 8.3 ppm, in vitro; for inhibition at 25 ppm: read-out: inhibition rate against rice blast, 25 ppm, in vitro; for inhibition at 0.1 ppm: read-out: inhibition rate against rice blast, 0.1 ppm, in vitro; for inhibition at 0.3 ppm: read-out: inhibition rate against rice blast, 0.3 ppm, in vitro; for inhibition at 0.9 ppm: read-out: inhibition rate against rice blast, 0.9 ppm, in vitro; for inhibition at 2.8 ppm: read-out: inhibition rate against rice blast, 2.8 ppm, in vitro; for inhibition rate against rice blast: in vitro
corn rust = test: protectant activity in vivo against corn rust; settings: for pest or weed control at 400 ppm: read-out: protectant activity against corn rust in vivo, 400 ppm; for pest or weed control at 100 ppm: read-out: protectant activity against corn rust in vivo, 100 ppm
[1] = tested on: Green peach aphids (Myzus Persicae Sulzer); test: bioactivity test against green peach aphid, airbrush foliar spray; assay type: in vivo; settings: for pest or weed control at 100 ppm / pest or weed control at 600 ppm / pest or weed control at 10 ppm: Myzus persicae, foliar, 48 h; for pest or weed control at 100 ppm / pest or weed control at 600 ppm / pest or weed control at 10 ppm / control (test results against green peach aphid): death rate after 48 hrs; for Insecticidal activity against peach aphid (%): contrastive test
In short: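 Death rate was scored at 48 hrs, held at 25±1 C and 60±5% RH, following airbrush foliar spray (0.5 mL, 10 psi) onto cabbage leaf discs bearing about 15-30 aphids. Test solutions: compound dissolved in 1:1 acetone:methanol, brought to concentration with 0.1% tween 80 water.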

carmine spider mite = test: bioactivity test against carmine spider mite, airbrush spray; assay type: in vivo; settings: for pest or weed control at 100 ppm / pest or weed control at 600 ppm: Tetranychus cinnabarinus, 72 h; for pest or weed control at 100 ppm / pest or weed control at 600 ppm / control against carmine spider mite: mortality after 72 hrs; for Insecticidal activity against carmine spider mite (% ): contrastive test
In short: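 Broadbean seedlings infested with adult mites were sprayed with compound (acetone/methanol stock diluted in 0.1% Tween 80 water) by airbrush at 0.7 kg/cm^2, 0.5 ml. Three replicates were run. Mortality was scored after 72 hrs.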

wheat powdery mildew = test: protectant activity in vivo against wheat powdery mildew; settings: for pest or weed control at 100 ppm: read-out: protectant activity against wheat powdery mildew in vivo, 100 ppm; for pest or weed control at 400 ppm: read-out: protectant activity against wheat powdery mildew in vivo, 400 ppm
cucumber downy mildew = test: protectant activity in vivo against cucumber downy mildew; settings: for pest or weed control at 400 ppm / pest or weed control at 50 ppm / pest or weed control at 100 ppm: Cucumis sativus, 168 h; for pest or weed control at 400 ppm: read-out: protectant activity against cucumber downy mildew in vivo, 400 ppm; for pest or weed control at 50 ppm: read-out: protectant activity against cucumber downy mildew in vivo, 50 ppm; for pest or weed control at 100 ppm: read-out: protectant activity against cucumber downy mildew in vivo, 100 ppm; for control effect against cucumber downy mildew (%): protectant activity
Diamond back moth = test: insecticidal activity against diamond back moth, airbrush spray; assay type: in vivo; settings: for control (test results against diamond back moth): mortality after 72 hrs
In short: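 Airbrush leaf-disc spray test: both faces of 2 cm cabbage discs received 0.5 ml of test solution at 0.7 kg/cm^2. Solutions were made in acetone:methanol (1:1) and brought to concentration with 0.1% Tween 80 in water. Ten second-instar larvae per disc, triplicates, were held at 25° C and 60˜70% R.H., with mortality recorded at 72 hrs.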

armyworm = test: bioactivity test against armyworm, airbrush spray; assay type: in vivo; settings: for control (test results against armyworm): mortality after 72 h

CCc1c(Cl)c(NCCc2ccc(Oc3ccc(C(F)(F)F)cc3)cc2)nc[n+]1CC(=O)c1ccc(Cl)cc1 [CK50, reference compound]
inhibition at 8.3 ppm (rice blast): 0%
inhibition at 25 ppm (rice blast): < 50%
pest or weed control at 6.25 µg/mL (corn rust; Zea mays, 168 h, read-out: control effect against corn rust (%), 6.25 mg/L, protectant activity): 0%
pest or weed control at 25 µg/mL (corn rust; Zea mays, 168 h, read-out: control effect against corn rust (%), 25 mg/L, protectant activity): 0%
pest or weed control at 100 µg/mL (corn rust; Zea mays, 168 h, read-out: control effect against corn rust (%), 100 mg/L, protectant activity): 0%
pest or weed control at 400 µg/mL (corn rust; Zea mays, 168 h, read-out: control effect against corn rust (%), 400 mg/L, protectant activity): 80%

Cc1ncnc(NCCc2ccc(Oc3ncc(C(F)(F)Cl)cc3Cl)cc2)c1Cl [Compound I-483]
inhibition at 0.1 ppm (rice blast): 100%
inhibition at 0.3 ppm (rice blast): 100%
inhibition at 0.9 ppm (rice blast): 100%
inhibition at 2.8 ppm (rice blast): 100%
inhibition at 8.3 ppm (rice blast): 100%
inhibition at 25 ppm (rice blast): 100%
pest or weed control at 100 ppm ([1]; 100 ppm): 100%
pest or weed control at 600 ppm ([1]; 600 ppm): 100%
pest or weed control at 100 ppm (carmine spider mite; 100 ppm): 80 to 99%
pest or weed control at 600 ppm (carmine spider mite; 600 ppm): 100%
pest or weed control at 400 ppm (corn rust; Zea mays, 168 h): 100%
pest or weed control at 100 ppm (wheat powdery mildew; Triticum aestivum, 168 h): 80 to 99%
pest or weed control at 400 ppm (wheat powdery mildew; Triticum aestivum, 168 h): 80 to 99%
pest or weed control at 400 ppm (cucumber downy mildew): 100%

FC(F)(F)c1ccc(Oc2ccc(CCNc3ncnc(CCl)c3Cl)cc2)nc1 [Compound I-2922]
inhibition rate against rice blast (rice blast; 0.1 ppm): 100%
inhibition rate against rice blast (rice blast; 0.3 ppm): 100%
inhibition rate against rice blast (rice blast; 0.9 ppm): 100%
inhibition rate against rice blast (rice blast; 2.8 ppm): 100%
inhibition rate against rice blast (rice blast; 8.3 ppm): 100%
protectant activity against corn rust in vivo (corn rust; 100 ppm): 100%
protectant activity against corn rust in vivo (corn rust; 400 ppm): 100%

CCc1nc(C)nc(NCCc2ccc(Oc3ncc(C(N)=O)cc3Cl)cc2)c1Cl [Compound I-6791]
inhibition at 25 ppm (rice blast): 80 to 99%
pest or weed control at 100 ppm (corn rust; Zea mays, 168 h): 80 to 99%
pest or weed control at 400 ppm (corn rust; Zea mays, 168 h): 100%

CCc1nc(C)nc(NCCc2ccc(Oc3ncccc3C(F)(F)F)cc2)c1Cl [Compound I-6793]
inhibition at 25 ppm (rice blast): 80 to 99%
pest or weed control at 10 ppm ([1]; 10 ppm): 80 to 99%
pest or weed control at 100 ppm ([1]; 100 ppm): 100%
pest or weed control at 600 ppm ([1]; 600 ppm): 100%
pest or weed control at 400 ppm (corn rust; Zea mays, 168 h): 100%
pest or weed control at 25 ppm (wheat powdery mildew; Triticum aestivum, 168 h, read-out: protectant activity against wheat powdery mildew in vivo, 25 ppm): 100%
pest or weed control at 100 ppm (wheat powdery mildew; Triticum aestivum, 168 h): 100%
pest or weed control at 400 ppm (wheat powdery mildew; Triticum aestivum, 168 h): 100%
pest or weed control at 400 ppm (cucumber downy mildew): 80 to 99%

CCc1nc(C)nc(NCCc2ccc(Oc3ccc(C#N)cn3)cc2)c1Cl [Compound I-6795]
inhibition at 25 ppm (rice blast): 80 to 99%
pest or weed control at 600 ppm ([1]; 600 ppm): 100%
pest or weed control at 100 ppm (carmine spider mite; 100 ppm): 100%
pest or weed control at 600 ppm (carmine spider mite; 600 ppm): 100%
pest or weed control at 400 ppm (corn rust; Zea mays, 168 h): 100%
pest or weed control at 400 ppm (wheat powdery mildew; Triticum aestivum, 168 h): 100%

CCOC(=O)c1ccc(Oc2ccc(CCNc3nc(C)nc(CC)c3Cl)cc2)nc1 [Compound I-6796]
inhibition at 25 ppm (rice blast): 80 to 99%
pest or weed control at 10 ppm ([1]; 10 ppm): 100%
pest or weed control at 100 ppm ([1]; 100 ppm): 100%
pest or weed control at 600 ppm ([1]; 600 ppm): 100%
pest or weed control at 600 ppm (carmine spider mite; 600 ppm): 80 to 99%
pest or weed control at 6.25 ppm (corn rust; Zea mays, 168 h, read-out: protectant activity against corn rust in vivo, 6.25 ppm): 80 to 99%
pest or weed control at 25 ppm (corn rust; Zea mays, 168 h, read-out: protectant activity against corn rust in vivo, 25 ppm): 80 to 99%
pest or weed control at 100 ppm (corn rust; Zea mays, 168 h): 100%
pest or weed control at 400 ppm (corn rust; Zea mays, 168 h): 100%
pest or weed control at 400 ppm (wheat powdery mildew; Triticum aestivum, 168 h): 100%
pest or weed control at 50 ppm (cucumber downy mildew): 80 to 99%
pest or weed control at 100 ppm (cucumber downy mildew): 80 to 99%
pest or weed control at 400 ppm (cucumber downy mildew): 100%

CCc1nc(C)nc(NCCc2ccc(Oc3ccc(C(=O)OC)cn3)cc2)c1Cl [Compound I-6797]
inhibition at 25 ppm (rice blast): 80 to 99%
pest or weed control at 10 ppm ([1]; 10 ppm): 80 to 99%
pest or weed control at 100 ppm ([1]; 100 ppm): 100%
pest or weed control at 600 ppm ([1]; 600 ppm): 100%
pest or weed control at 100 ppm (carmine spider mite; 100 ppm): 100%
pest or weed control at 600 ppm (carmine spider mite; 600 ppm): 100%
pest or weed control at 400 ppm (wheat powdery mildew; Triticum aestivum, 168 h): 80 to 99%
pest or weed control at 400 ppm (cucumber downy mildew): 80 to 99%

Cc1ncnc(NCCc2ccc(Oc3c(Cl)cc([N+](=O)[O-])cc3Cl)cc2)c1Cl [II-165]
inhibition at 0.1 ppm (rice blast): 100%
inhibition at 0.3 ppm (rice blast): 100%
inhibition at 0.9 ppm (rice blast): 100%
inhibition at 2.8 ppm (rice blast): 100%
inhibition at 8.3 ppm (rice blast): 100%
inhibition at 25 ppm (rice blast): 100%
pest or weed control at 600 ppm (carmine spider mite; 600 ppm): 80 to 99%
pest or weed control at 100 ppm (corn rust; Zea mays, 168 h): 80 to 99%
pest or weed control at 400 ppm (corn rust; Zea mays, 168 h): 100%

FC(F)c1ncnc(NCCc2ccc(Oc3ccc(Cl)cc3)nc2)c1Cl [III-547]
Insecticidal activity against diamond back moth (%) (Diamond back moth; 10 mg/L): 57%
Insecticidal activity against diamond back moth (%) (Diamond back moth; 100 mg/L): 100%
Insecticidal activity against diamond back moth (%) (Diamond back moth; 600 mg/L): 100%
control (test results against diamond back moth) (Diamond back moth; 100 ppm): 100%
control (test results against diamond back moth) (Diamond back moth; 600 ppm): 100%
Insecticidal activity against armyworm (%) (armyworm; 10 mg/L): 95%
Insecticidal activity against armyworm (%) (armyworm; 100 mg/L): 100%
Insecticidal activity against armyworm (%) (armyworm; 600 mg/L): 100%
control (test results against armyworm) (armyworm; 100 ppm): 100%
control (test results against armyworm) (armyworm; 600 ppm): 100%
Insecticidal activity against peach aphid (%) ([1]; 10 mg/L): 100%
Insecticidal activity against peach aphid (%) ([1]; 100 mg/L): 100%
Insecticidal activity against peach aphid (%) ([1]; 600 mg/L): 100%
control (test results against green peach aphid) ([1]; 10 ppm): 100%
control (test results against green peach aphid) ([1]; 100 ppm): 100%
control (test results against green peach aphid) ([1]; 600 ppm): 100%
Insecticidal activity against carmine spider mite (% ) (carmine spider mite; 100 mg/L): 100%
Insecticidal activity against carmine spider mite (% ) (carmine spider mite; 600 mg/L): 100%
control against carmine spider mite (carmine spider mite; 100 ppm): 100%
control against carmine spider mite (carmine spider mite; 600 ppm): 100%
protectant activity against corn rust in vivo (corn rust; 400 ppm): 100%
protectant activity against wheat powdery mildew in vivo (wheat powdery mildew; 400 ppm): 100%
control effect against cucumber downy mildew (%) (cucumber downy mildew; 25 mg/L): 100%
control effect against cucumber downy mildew (%) (cucumber downy mildew; 50 mg/L): 100%
control effect against cucumber downy mildew (%) (cucumber downy mildew; 100 mg/L): 100%
control effect against cucumber downy mildew (%) (cucumber downy mildew; 400 mg/L): 100%
protectant activity against cucumber downy mildew in vivo (cucumber downy mildew; 25 ppm): 100%
protectant activity against cucumber downy mildew in vivo (cucumber downy mildew; 50 ppm): 100%
protectant activity against cucumber downy mildew in vivo (cucumber downy mildew; 100 ppm): 100%
protectant activity against cucumber downy mildew in vivo (cucumber downy mildew; 400 ppm): 100%

FC(F)c1ncnc(NCCc2ccc(Oc3ccc(C(F)(F)F)cc3Cl)nc2)c1Cl [III-661]
inhibition rate against rice blast (rice blast; 8.3 ppm): 100%
control (test results against green peach aphid) ([1]; 100 ppm): 100%
control (test results against green peach aphid) ([1]; 600 ppm): 100%
protectant activity against corn rust in vivo (corn rust; 100 ppm): 100%
protectant activity against corn rust in vivo (corn rust; 400 ppm): 100%

Cc1cc(Cl)ccc1Oc1ccc(CCNc2ncnc(Cl)c2Cl)cn1 [III-2630]
inhibition at 25 ppm (rice blast): 80 to 99%
pest or weed control at 400 ppm (corn rust; Zea mays, 168 h): 100%
pest or weed control at 50 ppm (cucumber downy mildew): 80 to 99%
pest or weed control at 100 ppm (cucumber downy mildew): 80 to 99%
pest or weed control at 400 ppm (cucumber downy mildew): 100%
